Test results: patent US7736621B2, “Methods for gauging the effect of a depression treatment by determining the levels of beta-arrestin 1 and G-protein coupled receptor kinase 2” (Hypatia Ltd., priority 2004, dated 2010)

Key:
[1] = test system: beta-arrestin1; assay: Beta-arrestin 1 levels in rat brain areas after chronic antidepressant treatment (immunoblot); assay type: in vivo; settings: three weeks of treatment
Description: On the 22nd day, rats were decapitated, blood collected and brain regions immediately dissected. Tissue homogenization was carried out in a glass-teflon homogenizer with ice-cold buffer containing 20 mM Tris.Cl pH 7.4, 2 mM EDTA, 1 mM DTT and antiprotease cocktail (Sigma). After initial centrifugation at 800 g for 5 min, the supernatant was collected and further centrifuged at 48,000 g for 30 min using a Beckman Ti80 rotor. The resulting supernatant and pellet were separated: the supernatant fraction was collected and centrifuged at 120,000 g for 45 min and the supernatant obtained was used for all measurements; the pellet was resuspended in the homogenization buffer and the pellet fraction obtained was used for all measurements.
On the day of assay, cytosolic and/or membrane fraction were thawed. 10 μg total protein aliquots were taken for protein separation by SDS-(10%) polyacrylamide gel electrophoresis. The resulting proteins were transferred to nitrocellulose paper by use of electroblotting apparatus. Blots were blocked with 5% BSA for 1 hr in TBS containing 0.1% Tween-20 (TTBS) and incubated overnight with a monoclonal antibody to beta-arrestin1 (Transduction Labs, diluted 1:250). The immune bands were detected by subsequent incubation with anti-mouse IgG labeled with horseradishperoxidase using the Enhanced Chemiluminescence Western Blot Detection System (Amersham) followed by exposure to Kodak X-Omat film. […] Peak heights of immunoreactive bands presented as arbitrary absorbance units, were determined with a computer-assisted imaging system for semi-quantitative measurements. 10 μg rat cortical membranes run in each blot as a standard reference.
Beta-arrestin1 levels were measured in three rat brain areas: cortex, hippocampus and striatum.

[2] = test system: Gs and Gi proteins; settings: cited from earlier work

SMILES	Cytosolic beta-arrestin-1 in rat cortex ([1]; rat cortex, cytosolic fraction, 10 mg/kg twice daily intragastrically, compared with control group) [%]	Membrane beta-arrestin 1 in rat cortex ([1]; rat cortex, membrane fraction, 10 mg/kg twice daily intragastrically, compared with control group) [%]	Cytosolic beta-arrestin-1 in rat hippocampus ([1]; rat hippocampus, cytosolic fraction, 10 mg/kg twice daily intragastrically, compared with control group) [%]	Beta-arrestin 1 levels in striatum ([1]; rat striatum)	Dopamine-induced Gs hyperfunction of untreated patients with schizophrenia ([2]; leukocytes of patients with schizophrenia)	Gs level and function ([2]; patients with schizophrenia, reduction correlated with intensity of Parkinsonian side effects)
CN(C)CCCN1c2ccccc2CCc2ccccc21 [imipramine]	165.6	156.8	179.2	no alterations		
O=C(CCCN1CCC(O)(c2ccc(Cl)cc2)CC1)c1ccc(F)cc1 [haloperidol]					corrected	significant decrease in Gs level and function to below normal levels
